Experimental data from ChEMBL document CHEMBL3137667, “[Drug-induced liver injury; fourteenth updated edition of the bibliographic database of liver injuries and related drugs]” (Gastroenterol Clin Biol, 2004).

Assays:
[1] = Highest frequency of moderate liver toxicity observed during clinical trials, expressed as a percentage. [column '% BIOL' in source]; conditions: human
[2] = Proposed mechanism(s) of liver damage. [column 'MEC' in source]; conditions: human
[3] = human
[4] = human, serum
[5] = human; remark: listed apart in the source
[6] = human; remark: listed apart in the source
[7] = human, serum, 4383 h
[8] = human, serum; remark: listed apart in the source
[9] = human; remark: listed apart in the source
[10] = human; remark: listed apart in the source
[11] = human; remark: listed apart in the source
[12] = Times to onset, minimal and maximal, observed in the indexed observations. [column 'DELAI' in source]; conditions: human
[13] = human; remark: listed apart in the source
[14] = human; remark: listed apart in the source
[15] = human; remark: listed apart in the source
[16] = Highest frequency of acute liver toxicity observed during clinical trials, expressed as a percentage. [column '% AIGUE' in source]; conditions: human
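For Hepatotoxicity (association with vascular disease) in this document: count of indexed literature references reporting vascular liver injury in humans, e.g. peliosis hepatitis, hepatic veno-occlusive disease or Budd-Chiari syndrome.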
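For Hepatotoxicity (benign tumour) in this document: value is a count of indexed literature references citing a benign tumour confirmed by histopathology.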
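For Hepatotoxicity (choleostasis) in this document: human cholestatic liver injury, shown by histopathology or by peak ALT or AST elevation over alkaline phosphatase ratio below 2, value counts indexed literature reports.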
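For Hepatotoxicity (chronic liver disease) in this document: chronic liver injury confirmed by histopathology or persistently raised serum aminotransferase activity beyond 6 months, value given as the count of indexed literature references.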
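For Hepatotoxicity (cirrhosis) in this document: value is a count of indexed literature references reporting cirrhosis confirmed by histopathology.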
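For Hepatotoxicity (cytolytic) in this document: human cytolytic liver injury, shown by histopathology or by a ratio above 5 of peak ALT or AST elevation to alkaline phosphatase elevation, value counts indexed references.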
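For Hepatotoxicity (granulomatous hepatitis) in this document: value is a count of indexed literature references reporting granulomatous liver disease confirmed by histopathology.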
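For Hepatotoxicity (malignant tumour) in this document: malignant tumour confirmed by histopathology, value gives the count of indexed literature references reporting it.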
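For Hepatotoxicity (severe hepatitis) in this document: human clinical data: severe hepatitis, meaning potentially life-threatening liver failure or clinically observed cases, the value counts how many indexed literature references report it.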
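For Hepatotoxicity (steatosis) in this document: steatosis confirmed by histopathology, value is the count of indexed references.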

| SMILES | Hepatotoxicity (moderate) [1] | Hepatotoxicity (mechanism) [2] | Hepatotoxicity (association with vascular disease) [3] | Hepatotoxicity (acute) [4] | Hepatotoxicity (severe hepatitis) [5] | Hepatotoxicity (choleostasis) [6] | Hepatotoxicity (chronic liver disease) [7] | Hepatotoxicity (moderate) [8] | Hepatotoxicity (cytolytic) [9] | Hepatotoxicity (malignant tumour) [10] | Hepatotoxicity (granulomatous hepatitis) [11] | Hepatotoxicity (time to onset) [12] | Hepatotoxicity (benign tumour) [13] | Hepatotoxicity (steatosis) [14] | Hepatotoxicity (cirrhosis) [15] | Hepatotoxicity (acute) [16] | Hepatotoxicity (moderate) ([1]; Liver) | Hepatotoxicity (severe hepatitis) ([5]; Liver) | Hepatotoxicity (acute) ([16]; Liver) |
| --- | --- | --- | --- | --- | --- | --- | --- | --- | --- | --- | --- | --- | --- | --- | --- | --- | --- | --- | --- |
| CC(=O)Nc1cc([As](=O)(O)O)ccc1O [ACETARSONE] | 0% | Allergic | 0 | 2 | 0 | 0 | 0 | 0 | 0 | 0 | 0 | 2 cures - 3 cures | 0 | 0 | 0 | 0% | – | – | – |
| CC(=O)c1ccc(S(=O)(=O)NC(=O)NC2CCCCC2)cc1 [ACETOHEXAMIDE] | 0% | Dose-dependant | 0 | 6 | 0 | 0 | 0 | 0 | 2 | 0 | 0 | 3 weeks - 17 months | 0 | 0 | 1 | 0% | – | – | – |
| CCCCN1CCCCC1C(=O)Nc1c(C)cccc1C (stereo not given) [BUPIVACAINE] | 0% | Allergic | 0 | 2 | 0 | 2 | 0 | 0 | 1 | 0 | 0 | 2 weeks - 1 month | 0 | 0 | 0 | 0% | – | – | – |
| CC12CCC(CC1=O)C2(C)C (stereo not given) [CAMPHOR] | 0% | Dose-dependant | 0 | 1 | 0 | 0 | 0 | 0 | 1 | 0 | 0 | 3 days | 0 | 0 | 0 | 0% | – | – | – |
| CC(C(=O)O)c1ccc2c(c1)[nH]c1ccc(Cl)cc12 (stereo not given) [CARPROFEN] | 56.3% | Dose-dependant | 0 | 0 | 0 | 0 | 0 | 5 | 0 | 0 | 0 | 1 week - 1 month | 0 | 0 | 0 | 0% | – | – | – |
| CC1=C(C(=O)O)N2C(=O)[C@@H](NC(=O)[C@H](N)c3ccc(O)cc3)[C@H]2SC1 [CEFADROXIL] | – | Allergic | 0 | 2 | – | 2 | 0 | 1 | 1 | 0 | 0 | 4 days - 6 days | 0 | 0 | 0 | – | 3.1% | 0 | 0% |
| Cc1nnc(SCC2=C(C(=O)O)N3C(=O)[C@@H](NC(=O)Cn4cnnn4)[C@H]3SC2)s1 [CEFAZOLIN] | – | Allergic | 0 | 2 | – | 1 | 0 | 11 | 1 | 0 | 0 | 1 week - 25 days | 0 | 0 | 0 | – | 42.9% | 0 | 0% |
| O=C(O)C1=C(CSc2nnnn2CS(=O)(=O)O)CS[C@@H]2[C@H](NC(=O)[C@H](O)c3ccccc3)C(=O)N12 [CEFONICID] | 29% | Allergic | 0 | 2 | 0 | 0 | 0 | 10 | 0 | 0 | 0 | 4 days - 20 days | 0 | 0 | 0 | 5.9% | – | – | – |
| CO/N=C(\C(=O)N[C@@H]1C(=O)N2C(C(=O)OC(C)OC(C)=O)=C(COC(N)=O)CS[C@H]12)c1ccco1 (stereo not given in full) [CEFUROXIME AXETIL] | 20% | Allergic | 0 | 2 | 0 | 1 | 0 | 31 | 0 | 0 | 0 | 4 days | 0 | 0 | 0 | 0.2% | – | – | – |
| CO/N=C(\C(=O)N[C@@H]1C(=O)N2C(C(=O)O)=C(COC(N)=O)CS[C@H]12)c1ccco1 [CEFUROXIME] | 29.1% | Allergic | 0 | 1 | 1 | 0 | 0 | 8 | 1 | 0 | 0 | 2 days | 0 | 0 | 0 | 0% | – | – | – |
